Test results as given in PMC10606834, “Is the Neuropeptide PEN a Ligand of GPR83?” (International Journal of Molecular Sciences, 2023).

How the values were obtained:
[1] = system: GPR83 and GPR83del with Gα16 (HEK293); test: Intracellular calcium mobilization, Gα16-transfected HEK293 cells; format: cell-based, human; conditions: 10 µM PEN, 100 µM carbachol, 100 µM ATP, Fluo4-AM fluorescence, duplicate, repeated at least two times
Description: As activation of many GPCRs is coupled to calcium mobilization from intracellular stores, GPR83 was probed for ligand-dependent calcium release. Wild-type HEK293 cells and HEK293 clones overexpressing either full-length GPR83 or the N-terminal deletion variant GPR83del were exposed to buffer or one of two independent synthesis batches (PEN #1 and PEN #2) of the neuropeptide PEN, while calcium indicator fluorescence was recorded. […] Calcium release was also tested in a second cell line, osteosarcoma U2OS cells, using various stably expressing clones. […] Therefore, HEK293 cells transfected with Gα16 were employed to investigate a potential GPR83-dependent calcium mobilization with PEN. […] A number of GPCRs show ligand-independent basal calcium activity. However, in an experiment comparing basal calcium levels in wild-type HEK293 cells and in HEK293 clones overexpressing four different variants of GPR83, they were not found to be different (Figure 2D).
Figure 2 Investigation of ligand-dependent and ligand-independent intracellular calcium mobilization. (A) Wild-type HEK293 cells and HEK293 cell clones overexpressing either GPR83 or the deletion variant GPR83del were incubated with either buffer or the specified ligand (10 µM PEN or co mix = 100 µM carbachol, 100 µM ATP, 40 µM dimaprit, or 50 µM ionomycin). (B) Calcium indicator fluorescence intensity traces over 60 s of various U2OS cell clones overexpressing untagged or HA-tagged GPR83 or the deletion variant GPR83del before and after the addition of buffer or ligand (co mix as in (A) or 50 µM ionomycin or 10 µM PEN). […]
Cells were seeded at 50,000 cells/well in a poly-D-lysine coated 96-well black well/clear bottom plate (BD Falcon, Franklin Lakes, NJ, USA) and cultured overnight. […] Fluorescence was recorded with the fluorescence imaging plate reader CellLux (Perkin Elmer, Waltham, MA, USA) simultaneously in all wells at an excitation wavelength of 488 nm and emission wavelength of 510 nm in 1.5 s intervals over a period of 4 min. Fluorescence data were generated in duplicate, and experiments were repeated at least two times.

GPR83 = conditions: cited from earlier work
Excerpt: G protein-coupled receptor 83 (GPR83), also termed glucocorticoid-induced receptor (GIR), GPR72, KIAA1540, or JP05, is a class A G protein-coupled receptor with predominant expression in the […] and proposed function in the regulation of food intake and in anxiety-like behavior [1, 2, 3]. […] A potential role of GPR83 in regulatory T cell development and function has not been confirmed. […] The present study was initiated to evaluate PEN as a ligand of GPR83. […] While one end of the peptide may be crucial for binding the receptor, an absolute requirement of both peptide termini to be free of another ...

**Q.** Which calcium signal [1] does the source give for “AADHDVGSELPPEGVLGALLRV [PEN, batch #1 synthesized, batch #2 purchased from Phoenix Pharmaceuticals]” here?
**A.** PEN did not

**Q.** And the “ligand for GPR83” value (GPR83; 2016 proposal, ref [10])?
**A.** serves as a distinct ligand for GPR83

**Q.** What about the “GPR83 ligand and agonist” value (GPR83; comparative evaluation, multiple assay systems, ref [16]) of the same sequence?
**A.** not PEN

**Q.** What about the “activation of GPR83” value (GPR83; independent reports from two other labs, ref [12],[13]) of the same sequence?
**A.** supported activation of GPR83 by PEN
